# According to paper PMC9569593, “Measurement of Hepatic CYP3A4 and 2D6 Activity Using Radioiodine-Labeled O-Desmethylvenlafaxine” (International Journal of Molecular Sciences, 2022):
# Read-outs that look alike come from different tables or passages of the source.
# What was measured:
# CYP2D6 = conditions: CYP2D6-inhibited mice (paroxetine 30 mg/kg i.p. 60 min before), i.v.
# Experimental: (§1) ^125I-ODV was prepared to a radioactive concentration of 30 MBq/mL by the addition of saline. For metabolite analysis in CYP-inhibited mice, we produced model mice with reduced CYP3A4 or CYP2D6 activity by selective inhibition using ketoconazole or paroxetine. CYP3A4-inhibited mice were injected intraperitoneally with 50 mg/kg of ketoconazole at 60 min before injection of ^125I-ODV, and CYP2D6-inhibited mice were injected intraperitoneally with 30 mg/kg of paroxetine at 60 min before injection of ^125I-ODV. Each of three mice was administered ^125I-ODV via the tail vein (3.0 MBq/100 µL/mouse). At 30 min, the three fasted mice were euthanized under isoflurane, and each gallbladder was collected. The radioactive products in bile were analyzed by TLC using methanol/acetate at a ratio of 100:1. Bile was directly spotted onto a TLC plate.
# (§2) To examine the biological distribution in CYP-inhibited mice, we produced model mice in the same way as for the analysis of metabolism in bile. At 5, 15, 30, and 60 min after ^125I-ODV injection, mice were euthanized under isoflurane (n = 4), and the same tissues were collected and quantified.
# CYP3A4 = conditions: CYP3A4-inhibited mice (ketoconazole 50 mg/kg i.p. 60 min before), i.v.
# Experimental: as §1, §2
compound,measurement,setting,value
"CN(C)CC(c1ccc(O)c([125I])c1)C1(O)CCCCC1 (stereo not shown) [^125I-ODV, iodine-125-labeled O-desmethylvenlafaxine]","Biological distribution, Blood",CYP2D6; 5 min,1.83 %ID/g
same,"Biological distribution, Brain",CYP2D6; 5 min,0.79 %ID/g
same,"Biological distribution, Gallbladder",CYP2D6; 5 min,1.59 %ID/g
same,"Biological distribution, Heart",CYP2D6; 5 min,5.19 %ID/g
same,"Biological distribution, Kidney",CYP2D6; 5 min,19.94 %ID/g
same,"Biological distribution, Large intestines",CYP2D6; 5 min,1.12 %ID/organ
same,"Biological distribution, Liver",CYP2D6; 5 min,7.19 %ID/g
same,"Biological distribution, Lung",CYP2D6; 5 min,22.13 %ID/g
same,"Biological distribution, Pancreas",CYP2D6; 5 min,6.02 %ID/g
same,"Biological distribution, Small intestines",CYP2D6; 5 min,7.24 %ID/organ
same,"Biological distribution, Spleen",CYP2D6; 5 min,4.62 %ID/g
same,"Biological distribution, Stomach",CYP2D6; 5 min,1.77 %ID/organ
same,"Biological distribution, Thyroid",CYP2D6; 5 min,0.05 %ID/organ
same,"Biological distribution, Urine",CYP2D6; 5 min,0.33 %ID/organ
same,"Biological distribution, Blood",CYP2D6; 15 min,1.59 %ID/g
same,"Biological distribution, Brain",CYP2D6; 15 min,0.82 %ID/g
same,"Biological distribution, Gallbladder",CYP2D6; 15 min,10.66 %ID/g
same,"Biological distribution, Heart",CYP2D6; 15 min,2.87 %ID/g
same,"Biological distribution, Kidney",CYP2D6; 15 min,17.13 %ID/g
same,"Biological distribution, Large intestines",CYP2D6; 15 min,0.93 %ID/organ
same,"Biological distribution, Liver",CYP2D6; 15 min,5.56 %ID/g
same,"Biological distribution, Lung",CYP2D6; 15 min,11.96 %ID/g
same,"Biological distribution, Pancreas",CYP2D6; 15 min,5.71 %ID/g
same,"Biological distribution, Small intestines",CYP2D6; 15 min,5.64 %ID/organ
same,"Biological distribution, Spleen",CYP2D6; 15 min,4.97 %ID/g
same,"Biological distribution, Stomach",CYP2D6; 15 min,2.40 %ID/organ
same,"Biological distribution, Thyroid",CYP2D6; 15 min,0.04 %ID/organ
same,"Biological distribution, Urine",CYP2D6; 15 min,6.18 %ID/organ
same,"Biological distribution, Blood",CYP2D6; 30 min,1.12 %ID/g
same,"Biological distribution, Brain",CYP2D6; 30 min,0.71 %ID/g
same,"Biological distribution, Gallbladder",CYP2D6; 30 min,21.66 %ID/g
same,"Biological distribution, Heart",CYP2D6; 30 min,1.47 %ID/g
same,"Biological distribution, Kidney",CYP2D6; 30 min,15.90 %ID/g
same,"Biological distribution, Large intestines",CYP2D6; 30 min,0.74 %ID/organ
same,"Biological distribution, Liver",CYP2D6; 30 min,5.08 %ID/g
same,"Biological distribution, Lung",CYP2D6; 30 min,7.77 %ID/g
same,"Biological distribution, Pancreas",CYP2D6; 30 min,3.94 %ID/g
same,"Biological distribution, Small intestines",CYP2D6; 30 min,10.30 %ID/organ
same,"Biological distribution, Spleen",CYP2D6; 30 min,2.88 %ID/g
same,"Biological distribution, Stomach",CYP2D6; 30 min,3.20 %ID/organ
same,"Biological distribution, Thyroid",CYP2D6; 30 min,0.05 %ID/organ
same,"Biological distribution, Urine",CYP2D6; 30 min,22.96 %ID/organ
same,"Biological distribution, Blood",CYP2D6; 60 min,0.67 %ID/g
same,"Biological distribution, Brain",CYP2D6; 60 min,0.58 %ID/g
same,"Biological distribution, Gallbladder",CYP2D6; 60 min,26.70 %ID/g
same,"Biological distribution, Heart",CYP2D6; 60 min,0.62 %ID/g
same,"Biological distribution, Kidney",CYP2D6; 60 min,8.33 %ID/g
same,"Biological distribution, Large intestines",CYP2D6; 60 min,0.67 %ID/organ
same,"Biological distribution, Liver",CYP2D6; 60 min,1.75 %ID/g
same,"Biological distribution, Lung",CYP2D6; 60 min,3.15 %ID/g
same,"Biological distribution, Pancreas",CYP2D6; 60 min,2.51 %ID/g
same,"Biological distribution, Small intestines",CYP2D6; 60 min,10.85 %ID/organ
same,"Biological distribution, Spleen",CYP2D6; 60 min,1.46 %ID/g
same,"Biological distribution, Stomach",CYP2D6; 60 min,2.20 %ID/organ
same,"Biological distribution, Thyroid",CYP2D6; 60 min,0.10 %ID/organ
same,"Biological distribution, Urine",CYP2D6; 60 min,33.92 %ID/organ
same,"Biological distribution, Blood",CYP3A4; 5 min,1.91 %ID/g
same,"Biological distribution, Brain",CYP3A4; 5 min,0.71 %ID/g
same,"Biological distribution, Gallbladder",CYP3A4; 5 min,2.39 %ID/g
same,"Biological distribution, Heart",CYP3A4; 5 min,5.73 %ID/g
same,"Biological distribution, Kidney",CYP3A4; 5 min,21.72 %ID/g
same,"Biological distribution, Large intestines",CYP3A4; 5 min,1.19 %ID/organ
same,"Biological distribution, Liver",CYP3A4; 5 min,5.66 %ID/g
same,"Biological distribution, Lung",CYP3A4; 5 min,29.72 %ID/g
same,"Biological distribution, Pancreas",CYP3A4; 5 min,8.93 %ID/g
same,"Biological distribution, Small intestines",CYP3A4; 5 min,6.06 %ID/organ
same,"Biological distribution, Spleen",CYP3A4; 5 min,6.61 %ID/g
same,"Biological distribution, Stomach",CYP3A4; 5 min,2.37 %ID/organ
same,"Biological distribution, Thyroid",CYP3A4; 5 min,0.05 %ID/organ
same,"Biological distribution, Urine",CYP3A4; 5 min,2.10 %ID/organ
same,"Biological distribution, Blood",CYP3A4; 15 min,1.71 %ID/g
same,"Biological distribution, Brain",CYP3A4; 15 min,0.80 %ID/g
same,"Biological distribution, Gallbladder",CYP3A4; 15 min,5.43 %ID/g
same,"Biological distribution, Heart",CYP3A4; 15 min,3.93 %ID/g
same,"Biological distribution, Kidney",CYP3A4; 15 min,19.74 %ID/g
same,"Biological distribution, Large intestines",CYP3A4; 15 min,1.00 %ID/organ
same,"Biological distribution, Liver",CYP3A4; 15 min,4.72 %ID/g
same,"Biological distribution, Lung",CYP3A4; 15 min,21.72 %ID/g
same,"Biological distribution, Pancreas",CYP3A4; 15 min,5.94 %ID/g
same,"Biological distribution, Small intestines",CYP3A4; 15 min,6.37 %ID/organ
same,"Biological distribution, Spleen",CYP3A4; 15 min,6.35 %ID/g
same,"Biological distribution, Stomach",CYP3A4; 15 min,2.34 %ID/organ
same,"Biological distribution, Thyroid",CYP3A4; 15 min,0.05 %ID/organ
same,"Biological distribution, Urine",CYP3A4; 15 min,5.25 %ID/organ
same,"Biological distribution, Blood",CYP3A4; 30 min,1.44 %ID/g
same,"Biological distribution, Brain",CYP3A4; 30 min,0.74 %ID/g
same,"Biological distribution, Gallbladder",CYP3A4; 30 min,9.16 %ID/g
same,"Biological distribution, Heart",CYP3A4; 30 min,2.34 %ID/g
same,"Biological distribution, Kidney",CYP3A4; 30 min,15.65 %ID/g
same,"Biological distribution, Large intestines",CYP3A4; 30 min,1.00 %ID/organ
same,"Biological distribution, Liver",CYP3A4; 30 min,5.03 %ID/g
same,"Biological distribution, Lung",CYP3A4; 30 min,11.31 %ID/g
same,"Biological distribution, Pancreas",CYP3A4; 30 min,23.69 %ID/g
same,"Biological distribution, Small intestines",CYP3A4; 30 min,7.71 %ID/organ
same,"Biological distribution, Spleen",CYP3A4; 30 min,4.03 %ID/g
same,"Biological distribution, Stomach",CYP3A4; 30 min,2.24 %ID/organ
same,"Biological distribution, Thyroid",CYP3A4; 30 min,0.09 %ID/organ
same,"Biological distribution, Urine",CYP3A4; 30 min,5.63 %ID/organ
same,"Biological distribution, Blood",CYP3A4; 60 min,0.65 %ID/g
same,"Biological distribution, Brain",CYP3A4; 60 min,0.52 %ID/g
same,"Biological distribution, Gallbladder",CYP3A4; 60 min,20.14 %ID/g
same,"Biological distribution, Heart",CYP3A4; 60 min,0.96 %ID/g
same,"Biological distribution, Kidney",CYP3A4; 60 min,9.60 %ID/g
same,"Biological distribution, Large intestines",CYP3A4; 60 min,0.68 %ID/organ
same,"Biological distribution, Liver",CYP3A4; 60 min,2.12 %ID/g
same,"Biological distribution, Lung",CYP3A4; 60 min,5.81 %ID/g
same,"Biological distribution, Pancreas",CYP3A4; 60 min,2.77 %ID/g
same,"Biological distribution, Small intestines",CYP3A4; 60 min,10.07 %ID/organ
same,"Biological distribution, Spleen",CYP3A4; 60 min,1.94 %ID/g
same,"Biological distribution, Stomach",CYP3A4; 60 min,1.90 %ID/organ
same,"Biological distribution, Thyroid",CYP3A4; 60 min,0.11 %ID/organ
same,"Biological distribution, Urine",CYP3A4; 60 min,2.01 %ID/organ
